pIC50: −log10 of the molar value.
These compounds were tested against human TrkA (Homo sapiens (Human), UniProt P04629) (assay: Human TrkA inhibition assay (Test Example 2)). Details: Table 153, human TrkA inhibition; read-out: IC50.
Type: biochemical
How it was run: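 Recombinant TrkA (1 nmol/L) was preincubated 15 min at room temperature with compound in HEPES/MgCl2/DTT buffer, then reacted with FL-peptide 27 (1.5 μmol/L) and ATP (500 μmol/L) for 120 min at 37 °C. After EDTA stop, substrate phosphorylation was read by microfluidic mobility shift. IC50 came from logistic regression over 3-fold dilution series.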

Chain of human TrkA (P04629 440-796): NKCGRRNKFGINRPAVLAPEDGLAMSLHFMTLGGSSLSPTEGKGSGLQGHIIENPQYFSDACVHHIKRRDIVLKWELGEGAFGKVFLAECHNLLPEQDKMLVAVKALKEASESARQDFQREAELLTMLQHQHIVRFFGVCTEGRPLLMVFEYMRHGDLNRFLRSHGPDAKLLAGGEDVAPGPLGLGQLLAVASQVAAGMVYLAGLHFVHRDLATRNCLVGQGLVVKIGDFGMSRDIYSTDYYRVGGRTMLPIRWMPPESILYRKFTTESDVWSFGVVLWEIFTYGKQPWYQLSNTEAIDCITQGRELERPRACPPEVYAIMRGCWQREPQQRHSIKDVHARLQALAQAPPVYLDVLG

| pIC50 | SMILES |
| --- | --- |
| > 7.00 | COCCN1C[C@@H](NC(=O)Nc2c(C)c(-c3cnc(OC)c(C(N)=O)c3)nn2-c2ccccc2)[C@H](c2cnc(OC)c(F)c2)O1 (racemic) [Compound I-102] |
| > 7.00 | COCC[C@@H]1C[C@@H](NC(=O)Nc2c(C)c(-c3cnc4c(cnn4C)c3)nn2-c2ccccc2)[C@H](c2ccnc(F)c2)O1 (racemic) [Compound I-97] |
| > 7.00 | COCCN1C[C@@H](NC(=O)Nc2c(C)c(-c3cc(COC(C)=O)c(=O)n(C)c3)nn2-c2ccccc2)[C@H](c2ccc(F)c(F)c2)O1 (racemic) [Compound I-124] |
| > 7.00 | CNC(=O)c1cc(-c2nn(-c3ccccc3)c(NC(=O)N[C@@H]3CN(CCOC)O[C@H]3c3ccnc(F)c3)c2C)cn(C)c1=O (racemic) [Compound I-106] |
| > 7.00 | COCCN1C[C@@H](NC(=O)Nc2c(C)c(-c3ccnc(C(=O)OCc4ccccc4)c3)nn2-c2ccccc2)[C@H](c2ccc(F)c(F)c2)O1 (racemic) [Compound I-76] |
| > 7.00 | COCCN1C[C@@H](NC(=O)Nc2c(C)c(-c3cnc4c(cnn4C)c3)nn2-c2ccc(F)c(F)c2)[C@H](c2ccc(F)c(F)c2)O1 (racemic) [Compound I-175] |
| > 7.00 | COCCN1C[C@@H](NC(=O)Nc2c(C)c(-c3cnc4c(c3)nc(CO)n4C)nn2-c2ccccc2)[C@H](c2ccc(F)c(F)c2)O1 (racemic) [Compound I-78] |

Same assay, conditions: Table 154, human TrkA inhibition; read-out: IC50

| pIC50 | SMILES |
| --- | --- |
| > 7.00 | COCCN1C[C@@H](NC(=O)Nc2c(C)c(-c3ccn4c(C)nnc4c3)nn2-c2ccccc2)[C@H](c2ccc(F)cc2)O1 (racemic) [Compound I-284] |
| 6.00 to 7.00 | Cc1c(-c2cnc3c(cnn3C)c2)nn(-c2ccccc2)c1NC(=O)N[C@@H]1CN(CC2COC2)O[C@H]1c1ccc(F)c(F)c1 (racemic) [Compound I-202] |
| > 7.00 | CNS(=O)(=O)c1cc(-c2nn(-c3ccccc3)c(NC(=O)N[C@@H]3CN(CCOC)O[C@H]3c3ccc(F)c(F)c3)c2C)cn(C)c1=O (racemic) [Compound I-177] |
| > 7.00 | COCCN1C[C@@H](NC(=O)Nc2c(C)c(-c3cnc(OC)c(C(=O)N[C@@H]4CCOC4)c3)nn2-c2ccccc2)[C@H](c2ccnc(F)c2)O1 [Compound I-192] |
| > 7.00 | COCC[C@@H]1C[C@@H](NC(=O)Nc2c(C)c(-c3ccc(N=S(C)(C)=O)nc3)nn2-c2ccccc2)[C@H](c2ccc(F)c(F)c2)O1 (racemic) [Compound I-185] |
| > 7.00 | COCC[C@@H]1C[C@@H](NC(=O)Nc2c(C)c(-c3cnc4c(c3)c(=O)n(C)n4C)nn2-c2ccccc2)[C@H](c2ccc(F)c(F)c2)O1 (racemic) [Compound I-215] |
| > 7.00 | CCOc1ncc(-c2nn(-c3ccccc3)c(NC(=O)N[C@@H]3CN(CCOC)O[C@H]3c3ccnc(F)c3)c2C)cn1 (racemic) [Compound I-196] |
| > 7.00 | COCCN1C[C@@H](NC(=O)Nc2c(C)c(-c3cnc(OC)c(C(=O)NC4CCOCC4)c3)nn2-c2ccc(F)cc2)[C@H](c2ccc(F)c(F)c2)O1 (racemic) [Compound I-184] |
| > 7.00 | COCCN1C[C@@H](NC(=O)Nc2c(C)c(-c3cnc(N4CC(OC(=O)c5ccccc5)C4)nc3)nn2-c2ccccc2)[C@H](c2cc(F)nc(F)c2)O1 (racemic) [Compound I-286] |

Same assay, conditions: Table 155, human TrkA inhibition; read-out: IC50

| pIC50 | SMILES |
| --- | --- |
| > 7.00 | COCCN1C[C@@H](NC(=O)Nc2c(C)c(-c3cnc(N4CCNOCC4)nc3)nn2-c2ccccc2)[C@H](c2ccnc(F)c2)O1 (racemic) [Compound I-507] |
| > 7.00 | COCCN1C[C@@H](NC(=O)Nc2c(C)c(-c3cnc(N4CC(C)(O)C4)nc3)nn2-c2ccccc2)[C@H](c2ccnc(F)c2)O1 (racemic) [Compound I-479] |
| > 7.00 | COCCN1C[C@@H](NC(=O)Nc2c(C)c(-c3cnc(C(C)(C)O)c(F)c3)nn2-c2ccccc2)[C@H](c2ccnc(F)c2)O1 (racemic) [Compound I-459] |
| > 7.00 | COCCN1C[C@@H](NC(=O)Nc2c(C)c(-c3cnc(N4CC5(CCC5)C4)nc3)nn2-c2ccccc2)[C@H](c2ccnc(F)c2)O1 (racemic) [Compound I-485] |
| 6.00 to 7.00 | CNC(=O)c1cc(-c2nn(-c3ccccc3)c(NC(=O)N[C@@H]3CNO[C@H]3c3ccc(F)c(F)c3)c2C)cnc1OC (racemic) [Compound I-474] |

The remaining lines, values behind:

| SMILES | pIC50 |
| --- | --- |
| COCCN1C[C@@H](NC(=O)Nc2c(C)c(-c3ccc4nc(C)nn4c3)nn2-c2ccccc2)[C@H](c2cnc(F)c(F)c2)O1 [Compound I-363] | > 7.00 |
| COCCN1C[C@@H](NC(=O)Nc2c(C)c(-c3cnc(N4CCN(C)CC4)nc3)nn2-c2ccccc2)[C@H](c2ccnc(F)c2)O1 (racemic) [Compound I-379] | > 7.00 |
| COCCN1C[C@@H](NC(=O)Nc2c(C)c(-c3cnc(OC)nc3)nn2-c2ccccc2)[C@H](c2ccc(F)c(F)c2)O1 [Compound I-407] | > 7.00 |
| COCCN1C[C@@H](NC(=O)Nc2c(C)c(-c3cnc(C4(O)COC4)nc3)nn2-c2ccccc2)[C@H](c2ccnc(F)c2)O1 (racemic) [Compound I-360] | > 7.00 |
| COCC[C@@H]1C[C@@H](NC(=O)Nc2c(C)c(-c3cnc4c(c3)c(=O)n(C)n4C)nn2-c2ccccc2)[C@H](c2ccnc(F)c2)O1 [Compound I-330] | > 7.00 |
| COCCN1C[C@@H](NC(=O)Nc2c(C)c(-c3ccc(C)nc3F)nn2-c2ccccc2)[C@H](c2ccnc(F)c2)O1 (racemic) [Compound I-350] | > 7.00 |
| COCCN1C[C@@H](NC(=O)Nc2c(C)c(-c3cnc(OC4CCN(C)CC4)nc3)nn2-c2ccccc2)[C@H](c2ccnc(F)c2)O1 (racemic) [Compound I-381] | > 7.00 |

Same assay, conditions: Table 156, human TrkA inhibition; read-out: IC50

| pIC50 | SMILES |
| --- | --- |
| > 7.00 | COCCN1C[C@@H](NC(=O)Nc2c(C)c(OC3CN(C(=O)OC(C)(C)C)C3)nn2-c2ccccc2)[C@H](c2ccc(F)c(F)c2)O1 [Compound I-573] |
| > 7.00 | COCCN1C[C@@H](NC(=O)Nc2c(C)c(OCC3CNCCO3)nn2-c2ccccc2)[C@H](c2ccc(F)c(F)c2)O1 (single isomer, unassigned) [Compound I-576] |

Same assay, conditions: Table 157, human TrkA inhibition; read-out: IC50

| pIC50 | SMILES |
| --- | --- |
| > 7.00 | CCN1C[C@@H](NC(=O)Nc2c(C)c(-c3cnc(C(=O)NC)c(F)c3)nn2-c2ccccc2)[C@H](c2ccc(F)c(F)c2)O1 (racemic) [Compound I-613] |
| > 7.00 | CCN1C[C@@H](NC(=O)Nc2c(C)c(OCC(=O)NC)nn2-c2ccccc2)[C@H](c2ccc(F)c(F)c2)O1 (racemic) [Compound I-646] |
| > 7.00 | CCN1C[C@@H](NC(=O)Nc2c(C)c(-c3cnc4c(c3)OCCO4)nn2-c2ccccc2)[C@H](c2ccc(F)c(F)c2)O1 (racemic) [Compound I-626] |
| > 7.00 | CCN1C[C@@H](NC(=O)Nc2c(C)c(OCCCC(=O)NCCN(C)C)nn2-c2ccccc2)[C@H](c2ccc(F)c(F)c2)O1 (racemic) [Compound I-667] |
| > 7.00 | COCCN1C[C@@H](NC(=O)Nc2c(C)c(-c3cnc(N4CC[C@H](N(C)C)C4)nc3)nn2-c2ccccc2)[C@H](c2ccnc(F)c2)O1 [Compound I-586] |
| > 7.00 | CCN1C[C@@H](NC(=O)Nc2c(C)c(OCC(=O)NCCO)nn2-c2ccccc2)[C@H](c2ccc(F)c(F)c2)O1 (racemic) [Compound I-651] |
| > 7.00 | CCN1C[C@@H](NC(=O)Nc2c(C)c(OCCCC(=O)NCC(C)(C)O)nn2-c2ccccc2)[C@H](c2ccc(F)c(F)c2)O1 (racemic) [Compound I-669] |
| > 7.00 | CCN1C[C@@H](NC(=O)Nc2c(C)c(OCC(=O)NC3CC3)nn2-c2ccccc2)[C@H](c2ccc(F)c(F)c2)O1 (racemic) [Compound I-648] |
| > 7.00 | CCN1C[C@@H](NC(=O)Nc2c(C)c(OCC3CN(C)C3)nn2-c2ccccc2)[C@H](c2ccc(F)c(F)c2)O1 (racemic) [Compound I-658] |
| > 7.00 | CCN1C[C@@H](NC(=O)Nc2c(C)c(OCC3CNC3)nn2-c2ccccc2)[C@H](c2ccc(F)c(F)c2)O1 (racemic) [Compound I-657] |

| SMILES | pIC50 |
| --- | --- |
| COCCN1C[C@@H](NC(=O)Nc2c(C)c(CO[Si](C)(C)C(C)(C)C)nn2-c2ccccc2)[C@H](c2ccc(F)c(F)c2)O1 [Compound I-605] | 6.00 to 7.00 |

Same assay, conditions: human TrkA 1 nmol/L, ATP 500 μmol/L, 120 min at 37° C.; read-out: IC50 values (TrkA phosphorylation inhibition)

| pIC50 | SMILES |
| --- | --- |
| 8.89 | COCCN1C[C@@H](NC(=O)Nc2c(C)c(-c3ccc(OC)nc3)nn2-c2ccccc2)[C@H](c2ccnc(F)c2)O1 [Compound I-509] |
| 8.60 | COCCN1C[C@@H](NC(=O)Nc2c(C)c(-c3cnc4c(cnn4C4CCN(C)CC4)c3)nn2-c2ccccc2)[C@H](c2ccnc(F)c2)O1 (racemic) [Compound I-413] |

Further lines, the compound ahead of its results:

| SMILES | pIC50 |
| --- | --- |
| COCCN1C[C@@H](NC(=O)Nc2c(C)c(-c3ccc4c(cnn4C)c3)nn2-c2ccccc2)[C@H](c2ccc(F)c(F)c2)O1 (racemic) [Compound I-22] | 9.09 |
| COCCN1C[C@@H](NC(=O)Nc2c(C)c(-c3cnc4c(c3)oc(=O)n4C)nn2-c2ccccc2)[C@H](c2ccnc(F)c2)O1 (racemic) [Compound I-122] | 8.57 |
| COCCN1C[C@@H](NC(=O)Nc2c(C)c(-c3cnc4ncn(CC(F)(F)F)c4c3)nn2-c2ccccc2)[C@H](c2ccnc(F)c2)O1 (racemic) [Compound I-241] | 8.49 |
| COCC[C@@H]1C[C@@H](NC(=O)Nc2c(C)c(-c3cnc(C)nc3)nn2-c2ccccc2)[C@H](c2ccc(F)c(F)c2)O1 (racemic) [Compound I-28] | 8.60 |
| COCCN1C[C@@H](NC(=O)Nc2c(C)c(-c3cnc4c(cnn4C)c3)nn2-c2ccccc2)[C@H](c2ccnc(F)c2)O1 [Compound I-65] | 9.04 |
| CNC(=O)c1ncc(-c2nn(-c3ccccc3)c(NC(=O)N[C@@H]3CN(CCOC)O[C@H]3c3ccnc(F)c3)c2C)cc1C [Compound I-325] | 8.60 |
| COCCN1C[C@@H](NC(=O)Nc2c(C)c(-c3ccc4nc(C(N)=O)cn4c3)nn2-c2ccccc2)[C@H](c2cnc(F)c(F)c2)O1 (racemic) [Compound I-309] | 8.70 |
| COCCN1C[C@@H](NC(=O)Nc2c(C)c(-c3cnn(C)c3)nn2-c2ccccc2)[C@H](c2cc(F)nc(F)c2)O1 (racemic) [Compound I-217] | 8.34 |
